Experimental data: US10433551B2, “3-pyridyloxyphenyldihydrouracil compound and use thereof” (Sumitomo Chemical Company, Limited, priority 2016, dated 2019)

Legend:
Format in all cases: cell-based
[1] = tested on: barley scald fungi (Rhynchosporium secalis); test: Test for controlling barley scald fungi, growth in titer plate (absorbance 600 nm); settings: Test Example 4; 4.5 mg in 100 μL DMSO, 1 μL in 150 μL PDB medium with spores; 18° C., seven days
Method: (§1) In the test examples 1 to 4, a non-treated area means an area in which a test was conducted in the same manner as each test example, except that dimethyl sulfoxide was dispensed in place of the present compound diluted with dimethyl sulfoxide.
(§2) Four point five (4.5) milligrams of the present compound was diluted with 100 μL of dimethyl sulfoxide. One (1) μL portion of the diluted liquid was dispensed into a titer plate (96 wells), and thereto was then dispensed 150 μL of a potato dextrose broth medium (PDB medium) containing zoospores of cucumber phytophthora blight fungi (Phytophthora capsici). This plate was cultured at 27° C. for three days, thereby allowing the cucumber phytophthora blight fungi to undergo proliferation, and the absorbance at 600 nm of each well of the titer plate was then measured to determine a degree of growth of the cucumber phytophthora blight fungi. The efficacy was calculated from the determined degree of growth by the below-mentioned “Equation 1”. […]
(§3) Four point five (4.5) milligrams of the present compound was diluted with 100 μL of dimethyl sulfoxide. […] This plate was cultured at 18° C. for seven days, thereby allowing the barley scald fungi to undergo proliferation, and the absorbance at 600 nm of each well of the titer plate was then measured to determine a degree of growth of the barley scald fungi. […]

[2] = tested on: cucumber phytophthora blight fungi (Phytophthora capsici); test: Test for controlling cucumber phytophthora blight fungi, growth in titer plate (absorbance 600 nm); settings: Test Example 1; 4.5 mg in 100 μL DMSO, 1 μL in 150 μL PDB medium with zoospores; 27° C., three days
Method: as §1
Four point five (4.5) milligrams of the present compound was diluted with 100 μL of dimethyl sulfoxide. One (1) μL portion of the diluted liquid was dispensed into a titer plate (96 wells), and thereto was then dispensed 150 μL of a potato dextrose broth medium (PDB medium) containing zoospores of cucumber phytophthora blight fungi (Phytophthora capsici). This plate was cultured at 27° C. for three days, thereby allowing the cucumber phytophthora blight fungi to undergo proliferation, and the absorbance at 600 nm of each well of the titer plate was then measured to determine a degree of growth of the cucumber phytophthora blight fungi. The efficacy was calculated from the determined degree of growth by the below-mentioned “Equation 1”. As a result, the efficacy of the Present compound was 90% or more. Efficacy=100×(X−Y)/X “Equation 1” where X: Degree of fungal growth in non-treated area Y: Degree of fungal growth in treated area

[3] = tested on: damping-off fungi (Pythium ultimum); test: Test for controlling damping-off fungi, growth in titer plate (absorbance 600 nm); settings: 1 μL in 150 μL Czapek medium with mycelial suspension, 23° C., five days
Method: as §1, §2
as §3, with “23°” for “18°”, “five” for “seven”, “damping-off” for “barley scald”

Measured: efficacy

CCOC(=O)COc1ncccc1Oc1cc(N2C(=O)CC(O)(C(F)(F)F)NC2=O)c(F)cc1Cl (stereo not shown) [Present compound]
≥ 90%: [1] | [2] | [3]; Test Example 2, 4.5 mg in 100 μL DMSO | [3]; Test Example 3, 1.12 mg in 100 μL DMSO
